Values after ≈ are worked out from the molar mass of the structure shown. Each block holds one compound with its values, some of them ahead of it.
Assays:
clitoral artery = experiment: Measurement of clitoral blood flow by ultrasound (Doppler velocitometer); type: in vivo, human; details: Patient No. 1; for Change in Clitoral Blood Flow: peak systolic flow vs baseline; for Change in Clitoral Blood Flow, percent in brackets: vs baseline
From the text: 1. Measurement of clitoral blood flow by ultrasound:
Clitoral blood flow was estimated by utilizing the Knoll-Midas ultrasonic Doppler velocitometer (Urometrics, Inc.). The ultrasound probe was manually positioned over the middle of the clitoral body as it courses superficially through the perineum between the external vaginal opening and the end of the clitoris (glans clitoris). […] This method is analogous to that used in measuring the cavernosal artery velocity in the penis. The clitoral artery was easily visualized. Measurements were made at baseline and at various time intervals following the application of a drug to the clitoris. Peak systolic blood flow at baseline was compared to peak systolic blood flow following drug administration as a method of comparing relative efficacy in inducing clitoral artery vasodilatation in a manner analogous to studies of such drugs in men.
(§1) 1. Solutions of prostaglandin E-1 and E-2 were prepared by dissolving weighed amounts of the prostaglandin in triacetin to produce a concentrated stock solution. Serial dilutions of this stock solution were made by a micropipette. Since triacetin can partially hydrolyze on standing to produce traces of acetic acid, the triacetin was treated with a small amount of a concentration potassium bicarbonate solution to remove any acetic acid, then dried with magnesium sulfate and filtered to give a triacetin free of acid or water. Solutions were used the same day that they were made. Concentrations of prostaglandin varied from 2.0-1,000 micrograms per milliliter of triacetin. Following equilibration of clitoral temperature, a dose of triacetin was applied to the clitoris prior to active drug solutions to determine the effect of the carrier on the clitoris.
(§2) Solutions were applied directly to the clitoris by means of a calibrated micropipette (Justor 1100DG, Sigma; St. Louis, Mo.).

Solubility in water = type: physicochemical
Protocol: 5 mg of PGE-2 is added to sterile cold water (10 ml, 1 mM in sodium citrate), stirred until dissolved and the pH adjusted with either NaOH or HCl, to a pH of about 5.4.

clitoris [1] = experiment: Patient subjective reports of sexual arousal and symptoms after application to the clitoris; type: in vivo, human
Protocol: 3. Patient Subjective Reports:
Patient reports of symptoms and effects of agents on sexual arousal measures (such as warmth and tingling, vaginal lubrication and excitation) were recorded. Blood pressure and pulse were also recorded. Different drugs were given on different days. Some series of drug titrations were recorded on several days.
as §1
(§3) 2. R-alphamethylhistamine hydrochloride is not soluble in triacetin but is soluble in saline. Normal saline +2 millimolar potassium phosphate at pH 7.4 was used to prepare solutions of R-alphamethylhistamine hydrochloride with concentrations from 2.5-100 micrograms per milliliter of saline.
as §2

clitoris [2] = experiment: Measurement of clitoral skin temperature after topical application to the clitoris; type: in vivo, human
From the text: 2. Measurement of clitoral skin temperature:
A highly sensitive thermocouple capable of determining changes in skin temperature of 0.002 degrees Fahrenheit was connected to a computer-based recording device (F1000 by Focused Technology, Inc.) and used to measure changes in clitoral skin temperature. The patient changed from their clothes into a gown and was placed in a semi-reclining position in a comfortable recliner. Room temperature was controlled at 76 degrees F. (±1) and no air drafts were present. The thermocouple was coated with a small amount of lubricating jelly and placed in a labial skin fold adjacent to the clitoris. A period of equilibration (˜15 minutes) allowed the measured temperature to stabilize. Next, precise doses of various pharmaceuticals were applied as solutions directly to the clitoris by a calibrated micropipette (Justor 1100DG, Sigma; St. Louis, Mo.). Typical volumes used were 20-50 microliters. Clitoral temperatures were continually measured and printed for analysis. Increases in skin temperature directly correlate with changes in cutaneous blood flow. See Birnbaum (U.S. Pat. No. 4,311,707) for an example of using this method to compare the relative vasodilatory potency of topical prostaglandins. Changes in skin temperature are reported as maximum recorded temperature in an interval minus the temperature at the end of the equilibration period. The magnitudes of these recorded temperature changes may be used as a measurement of the change in clitoral blood flow.
as §1, §3, §2

[3] = Chemical stability of prostaglandin preparations; type: physicochemical; details: composition containing a citrate salt or tocopherol
clitoris [4] = experiment: Subjective examples: composition applied directly to the clitoris of female subjects; type: in vivo, human
From the text: The clitoris is often retracted or hidden under the clitoral hood. Thus, prior to administration of the present composition, the clitoral hood should be retracted with the finger of one hand, and the clitoral hood should be held back as the dose is applied. IV. Subjective Examples

[5] = Patient No. 1, 0.400 mcg in triacetin on clitoris
[6] = Patient No. 1, 1.000 mcg in triacetin on clitoris
[7] = Patient No. 1, 20.0 mcg in triacetin on clitoris
[8] = Patient No. 1, 50.0 mcg in triacetin on clitoris
[9] = Patient No. 1, 200.0 mcg in triacetin on clitoris
[10] = Patient No. 2, 1.000 mcg in triacetin on clitoris
[11] = Patient No. 2, 10.0 mcg in triacetin on clitoris
[12] = Patient No. 2, 100.0 mcg in triacetin on clitoris
[13] = Patient No. 1, 1.0 mcg in saline on clitoris
[14] = Patient No. 1, 10.0 mcg in saline on clitoris
[15] = Patient No. 1, 100.0 mcg in saline on clitoris
[16] = Example 2, 50 μg with 150 μg phentolamine hydrochloride
[17] = Example 6, 300 μg liposomal mixture after 50 mg naltrexone HCl 2 hours before, person, anorgasmia secondary to paroxetine
[18] = Patient No. 1, 0.020 mcg in triacetin on clitoris
[19] = Patient No. 1, 0.200 mcg in triacetin on clitoris
[20] = Patient No. 1, 10.0 mcg in triacetin on clitoris

solubility (Solubility in water): 80 µg/mL (≈ 226 µM)
Structure (SMILES): CCCCC[C@H](O)/C=C/[C@H]1[C@H](O)CC(=O)[C@@H]1CCCCCCC(=O)O [PGE-1, 3-hydroxy-2-(3-hydroxy-1-octenyl)-5-oxocyclopentaneheptanoic acid]
Change in Clitoral Blood Flow (clitoral artery; 20.0 mcg in triacetin): 4 cm/s | Change in Clitoral Blood Flow, percent in brackets (clitoral artery; 20.0 mcg in triacetin): +46% | Change in Clitoral Blood Flow (clitoral artery; 50.0 mcg in triacetin): 3.5 cm/s | Change in Clitoral Blood Flow, percent in brackets (clitoral artery; 50.0 mcg in triacetin): +32% | Change in Clitoral Blood Flow (clitoral artery; 100.0 mcg in triacetin): 6.5 cm/s | Change in Clitoral Blood Flow, percent in brackets (clitoral artery; 100.0 mcg in triacetin): +33% | Change in Clitoral Blood Flow (clitoral artery; 200.0 mcg in triacetin): 11 cm/s | Change in Clitoral Blood Flow, percent in brackets (clitoral artery; 200.0 mcg in triacetin): +80% | Doses giving pleasurable feelings (clitoris [1]; Patient No. 1): ≥ 20 µg | Doses with adverse effects (clitoris [1]; Patient No. 1): adverse effects at all doses | Subjective Response (clitoris [1]; [5]): Felt cold. | Subjective Response (clitoris [1]; [6]): Clitoral burning; 6/10; | Subjective Response (clitoris [1]; [7]): Clitoral burning; 4/10. | Subjective Response (clitoris [1]; [8]): Exciting. Jaw pain. | Subjective Response (clitoris [1]; [9]): Diffuse pain, flushing, | Overall effects (clitoris [1]; Patient No. 2): neither positive nor negative effects | Subjective Response (clitoris [1]; [10]): Felt drop go on. No | Subjective Response (clitoris [1]; [11]): Felt drop go on. No | Subjective Response (clitoris [1]; [12]): Felt nothing. | Temperature Change (clitoris [2]; [5]): −0.6 ° F. | Temperature Change (clitoris [2]; [6]): 0.3 ° F. | Temperature Change (clitoris [2]; [7]): 0.3 ° F. | Temperature Change (clitoris [2]; [8]): 0.1 ° F. | Temperature Change (clitoris [2]; Patient No. 1, 100.0 mcg in triacetin on clitoris): 2.7 ° F. | Temperature Change (clitoris [2]; [9]): 0.4 ° F. | Clitoral temperature effect (conclusion) (clitoris [2]; Patient No. 2): did not have a temperature increase | Temperature Change (clitoris [2]; [10]): −0.35 ° F. | Temperature Change (clitoris [2]; [11]): −0.10 ° F. | Temperature Change (clitoris [2]; [12]): −0.10 ° F.

Structure (SMILES): C[C@@H](N)Cc1c[nH]cn1.Cl [R-alphamethylhistamine, R-alphamethylhistamine hydrochloride]
Subjective Response (clitoris [1]; [13]): None. | Subjective Response (clitoris [1]; [14]): Numb feeling in clitoris. | Subjective Response (clitoris [1]; [15]): Clitoral burning; 2/10; | Overall effect on temperature and sexual excitement (clitoris [2]; Patient No. 1): decreased temperature and decreased sexual excitement | Temperature Change (clitoris [2]; [13]): −0.1 ° F. | Temperature Change (clitoris [2]; [14]): −0.5 ° F. | Temperature Change (clitoris [2]; [15]): 0.1 ° F.

Stability in composition [3]: especially stabile
Structure (SMILES): CCCCC[C@H](O)/C=C/[C@H]1[C@H](O)CC(=O)[C@@H]1C/C=C\CCCC(=O)O [PGE-2, 7-[3-hydroxy-2-(3-hydroxy-1-octenyl)-5-oxocyclopentyl]-5-heptenoic acid]
Change in Clitoral Blood Flow (clitoral artery; 0.020 mcg in triacetin): 0 cm/s | Change in Clitoral Blood Flow (clitoral artery; 0.200 mcg in triacetin): 11 cm/s | Change in Clitoral Blood Flow, percent in brackets (clitoral artery; 0.200 mcg in triacetin): +50% | Change in Clitoral Blood Flow (clitoral artery; 0.400 mcg in triacetin): 12 cm/s | Change in Clitoral Blood Flow, percent in brackets (clitoral artery; 0.400 mcg in triacetin): +92% | Change in Clitoral Blood Flow (clitoral artery; 1.000 mcg in triacetin): 10 cm/s | Change in Clitoral Blood Flow, percent in brackets (clitoral artery; 1.000 mcg in triacetin): +77% | Change in Clitoral Blood Flow (clitoral artery; 10.0 mcg in triacetin): 10 cm/s | Change in Clitoral Blood Flow, percent in brackets (clitoral artery; 10.0 mcg in triacetin): +100% | Change in Clitoral Blood Flow (clitoral artery; 50.0 mcg in triacetin): 2 cm/s | Change in Clitoral Blood Flow, percent in brackets (clitoral artery; 50.0 mcg in triacetin): +20% | Dose resulting in an increase in clitoral blood flow (clitoral artery; triacetin solution with palmitic acid (PGDH inhibitor) and PGE2 in 10:1 weight ratio): 0.4 nanograms | Sexual response after application (clitoris [4]; Example 1A, 20 μg with 150 μg phentolamine hydrochloride and 3 mg papaverine hydrochloride in liposomal solution, person, no sexual dysfunction): the clitoris became engorged and vaginal lubrication was noted | Sexual response after application (clitoris [4]; Example 1B, 125 μg with 125 μg phentolamine, aqueous solution, 2 drops, same person): essentially the same response as in part A | Sexual response after application (clitoris [4]; Example 1C, 125 μg alone in aqueous saline, 3 drops, same person): the same response described in part A but with reduced intensity | Duration of clitoral enlargement and sexual excitement (clitoris [4]; [16]): gone within one hour after application of the composition | Time at which stimulation peaked after application (clitoris [4]; [16]): around 15 minutes | Sexual response after application (clitoris [4]; Example 2, 50 μg with 150 μg phentolamine hydrochloride, aqueous solution, person, no sexual dysfunction): warm tingling sexual feelings in their clitoris within one minute | Response to repeat dosing (clitoris [4]; Example 2, repeat dose one and a half hours after the first dose): gave the same response as the first dose | Intensity of response rated by subject (clitoris [4]; Example 2, scale of one (1) to ten (10), ten highest, 50 μg with 150 μg phentolamine hydrochloride): 8 | Sexual response after application (clitoris [4]; Example 5, 150 μg in liposomal solution, three drops, person with decreased sexual responsiveness): greatly increased their sexual desire and responsiveness | Sexual response after application (clitoris [4]; [17]): had the best sexual experience of their life | Time to tingling sexual feelings spreading over body (clitoris [4]; [17]): ≤ 1 min | Best dose (clitoris [1]; Patient No. 1): 0.400 µg | Doses with adverse effects (clitoris [1]; Patient No. 1): 50 µg | Subjective Response (clitoris [1]; [18]): Rare tingle. | Subjective Response (clitoris [1]; [19]): Very excited. | Subjective Response (clitoris [1]; [5]): Very excited, 9/10. | Subjective Response (clitoris [1]; [6]): Excited, 7/10. | Subjective Response (clitoris [1]; [20]): Very excited. | Subjective Response (clitoris [1]; [8]): Excited. 2/10 abdominal | Dose with subjective reports of a sexual response (clitoris [1]; Patient No. 1, triacetin solution with palmitic acid (PGDH inhibitor) and PGE2 in 10:1 weight ratio): 2 nanograms | Amount giving a sexual response (clitoris [1]; Patient No. 2): ≥ 0.050 µg | Subjective Response (clitoris [1]; [10]): Excited. | Temperature Change (clitoris [2]; [18]): 2.1 ° F. | Potency relative to PGE-1 (clitoral temperature increase) (clitoris [2]; Patient No. 1, 0.200 mcg PGE-2 about equal to 100 mcg PGE-1): about 500 times | Temperature Change (clitoris [2]; [19]): 2.4 ° F. | Temperature Change (clitoris [2]; [5]): 4.5 ° F. | Temperature Change (clitoris [2]; [6]): 2.3 ° F. | Temperature Change (clitoris [2]; [20]): 4.8 ° F. | Temperature Change (clitoris [2]; [8]): 2.0 ° F. | Temperature Change (clitoris [2]; Patient No. 2, 0.050 mcg in triacetin on clitoris): 1.8 ° F. | Temperature Change (clitoris [2]; [10]): 2.4 ° F. | Temperature Change (clitoris [2]; [11]): 2.0 ° F. | Clitoral temperature effect (conclusion) (clitoris [2]; both patients): increases in clitoral temperatures

Reference: patent US6593369B2, “Methods, compositions, and kits for enhancing female sexual desire and responsiveness” (Vivus, Inc., priority 1997, dated 2003)
